Biological target: T1, rat MAO-B (Rattus norvegicus, UniProt P19643)
T1 construct: from tissue; host or cells: rat liver mitochondria (male Sprague-Dawley rats)
T1 sequence (P19643 1-520): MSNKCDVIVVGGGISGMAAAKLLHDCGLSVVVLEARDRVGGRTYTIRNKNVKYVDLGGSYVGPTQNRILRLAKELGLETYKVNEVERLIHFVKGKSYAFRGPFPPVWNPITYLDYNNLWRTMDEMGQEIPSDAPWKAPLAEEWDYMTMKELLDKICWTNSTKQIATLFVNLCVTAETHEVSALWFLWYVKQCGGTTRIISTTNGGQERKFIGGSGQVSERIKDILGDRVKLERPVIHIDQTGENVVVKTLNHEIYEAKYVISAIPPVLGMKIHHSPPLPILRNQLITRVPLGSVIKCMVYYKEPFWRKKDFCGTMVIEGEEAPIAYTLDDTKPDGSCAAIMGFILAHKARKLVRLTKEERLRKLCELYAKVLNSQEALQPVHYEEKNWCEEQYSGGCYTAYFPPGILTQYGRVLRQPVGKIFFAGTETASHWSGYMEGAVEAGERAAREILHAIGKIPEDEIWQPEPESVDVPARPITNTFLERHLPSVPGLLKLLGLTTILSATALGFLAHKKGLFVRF
Assay: Rat MAO-B assay (Amplex Red fluorescence, rat liver mitochondria pre-treated with clorgyline 30 nM)
Type: biochemical
Settings: rat liver mitochondria pre-treated with clorgyline 30 nM; read-out: rat MAO-B (rat liver mitochondria) IC50
Description: (§1) Male Sprague-Dawley (Harlan Sprague Dawley, Dublin, Va., US) rats (250-300 g) were sacrificed under light anesthesia and their livers were dissected. […] After homogenization, the volume is adjusted to 100 mL with the same buffer. After a low speed centrifugation (10 min at 600 g; 4° C.), the supernatant is further centrifuged at 15,000 rpm for 5 min at +4° C. The resulting pellet was resuspended in 2.0 mL of a 50 mM sodium/phosphate buffer (pH 7.4) and stored at −80° C. in aliquots of 1.0 mL each until further use.
(§2) The Amplex® Red reagent was prepared as recommended in the kit from Invitrogen (A12214). […] Clorgyline (1.0 μM) from Sigma Aldrich (M3778) was used to determine non-MAO-A enzyme activity and concentration-response curves of clorgyline serve as positive control.

Compound | IC50
O=C(Nc1ccc(O)c(Cl)c1)c1ccc2[nH]ncc2c1 [Example 5, N-(3-chloro-4-hydroxyphenyl)-1H-indazole-5-carboxamide] | 941 ± 51 nM
COc1cc(NC(=O)c2ccc3[nH]ncc3c2)ccc1Cl [Example 4, N-(4-chloro-3-methoxy)-1H-indazole-5-carboxamide] | 43.1 ± 4.2 nM
O=C(Nc1ccc(Cl)c(F)c1)c1ccc2[nH]ncc2c1 [Example 10, N-(4-chloro-3-fluorophenyl)-1H-indazole-5-carboxamide] | 2.61 ± 0.68 nM

Biological target: T2, human MAO-B (Homo sapiens, UniProt P27338)
T2 sequence (P27338 1-520): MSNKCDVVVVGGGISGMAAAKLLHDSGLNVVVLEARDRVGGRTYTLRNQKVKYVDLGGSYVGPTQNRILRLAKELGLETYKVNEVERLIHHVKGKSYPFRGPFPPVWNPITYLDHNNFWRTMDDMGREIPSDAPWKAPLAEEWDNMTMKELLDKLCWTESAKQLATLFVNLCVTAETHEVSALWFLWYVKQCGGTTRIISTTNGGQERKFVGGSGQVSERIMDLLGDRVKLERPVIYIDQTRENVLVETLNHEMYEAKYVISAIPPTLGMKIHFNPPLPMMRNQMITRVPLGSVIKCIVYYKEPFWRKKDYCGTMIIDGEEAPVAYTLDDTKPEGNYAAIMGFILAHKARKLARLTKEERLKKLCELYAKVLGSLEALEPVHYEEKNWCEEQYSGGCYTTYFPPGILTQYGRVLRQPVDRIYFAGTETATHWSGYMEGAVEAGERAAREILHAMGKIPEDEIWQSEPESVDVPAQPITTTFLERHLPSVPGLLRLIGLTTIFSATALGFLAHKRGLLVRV
Assay: Human MAO-B assay (recombinant enzyme, Amplex Red fluorescence)
Type: biochemical
Design: purchased Sigma-Aldrich M7441; host or cells: baculovirus-infected insect cells (microsomal product)
Settings: p-tyramine 150 μM

Compound | IC50
O=C(Nc1ccc(O)c(Cl)c1)c1ccc2[nH]ncc2c1 [Example 5, N-(3-chloro-4-hydroxyphenyl)-1H-indazole-5-carboxamide] | 123 ± 16 nM
COc1cc(NC(=O)c2ccc3[nH]ncc3c2)ccc1Cl [Example 4, N-(4-chloro-3-methoxy)-1H-indazole-5-carboxamide] | 4.36 ± 0.08 nM
O=C(Nc1ccc(Cl)c(F)c1)c1ccc2[nH]ncc2c1 [Example 10, N-(4-chloro-3-fluorophenyl)-1H-indazole-5-carboxamide] | 0.668 ± 0.053 nM

System: not given
Assay: not given
Settings: not given

Compound | melting point
O=C(Nc1ccc(Cl)c(Cl)c1)c1ccc2[nH]ccc2c1 [Example 2, N-(3,4-dichlorophenyl)-1H-indole-5-carboxamide] | 233.8 to 234.8 °C
Cn1ccc2cc(C(=O)Nc3ccc(Cl)c(Cl)c3)ccc21 [Example 16, N-(3,4-dichlorophenyl)-1-methyl-1H-indole-5-carboxamide] | 178.9 to 180.3 °C
O=C(Nc1cc(Cl)cc(Cl)c1)c1ccc2[nH]ncc2c1 [Example 8, N-(3,5-dichlorophenyl)-1H-indazole-5-carboxamide] | 302.7 to 304.8 °C
O=C(Nc1ccc(O)c(Cl)c1)c1ccc2[nH]ncc2c1 [Example 5, N-(3-chloro-4-hydroxyphenyl)-1H-indazole-5-carboxamide] | 272.2 to 273.4 °C
COc1cc(NC(=O)c2ccc3[nH]ncc3c2)ccc1Cl [Example 4, N-(4-chloro-3-methoxy)-1H-indazole-5-carboxamide] | 279.6 to 281.6 °C

Biological target: T3, rat MAO-A (Rattus norvegicus, UniProt P21396)
T3 construct: from tissue; host or cells: rat liver mitochondria (male Sprague-Dawley rats)
T3 sequence (P21396 1-526): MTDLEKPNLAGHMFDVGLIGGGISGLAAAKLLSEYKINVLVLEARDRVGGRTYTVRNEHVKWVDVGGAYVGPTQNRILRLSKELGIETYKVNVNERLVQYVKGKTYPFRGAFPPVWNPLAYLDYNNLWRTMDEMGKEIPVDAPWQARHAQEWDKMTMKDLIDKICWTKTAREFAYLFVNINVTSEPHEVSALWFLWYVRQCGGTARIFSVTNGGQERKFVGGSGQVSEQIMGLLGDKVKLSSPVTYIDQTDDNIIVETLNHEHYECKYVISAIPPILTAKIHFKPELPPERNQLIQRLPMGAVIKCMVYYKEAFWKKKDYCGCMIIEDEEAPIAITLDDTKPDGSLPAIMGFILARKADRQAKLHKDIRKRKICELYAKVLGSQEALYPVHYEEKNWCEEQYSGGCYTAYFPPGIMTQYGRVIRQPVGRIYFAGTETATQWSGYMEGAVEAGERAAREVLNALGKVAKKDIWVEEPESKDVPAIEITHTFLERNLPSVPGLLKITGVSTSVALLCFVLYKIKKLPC
Assay: Rat MAO-A assay (Amplex Red fluorescence, rat liver mitochondria pre-treated with deprenyl)
Type: biochemical
Settings: rat liver mitochondria, substrate p-tyramine; read-out: rat MAO-A (rat liver mitochondria) IC50
Description: as §1, §2

Compound | IC50
COCCn1ncc2cc(C(=O)Nc3ccc(Cl)c(Cl)c3)ccc21 [Example 21, N-(3,4-dichlorophenyl)-1-(2-methoxyethyl)-1H-indazole-5-carboxamide] | < 10000 nM
O=C(Nc1ccc(F)c(Cl)c1)c1ccc2[nH]ncc2c1 [Example 9, N-(3-chloro-4-fluorophenyl)-1H-indazole-5-carboxamide] | > 10000 nM
O=C(Nc1ccc(O)c(Cl)c1)c1ccc2[nH]ncc2c1 [Example 5, N-(3-chloro-4-hydroxyphenyl)-1H-indazole-5-carboxamide] | < 10000 nM
COc1cc(NC(=O)c2ccc3[nH]ncc3c2)ccc1Cl [Example 4, N-(4-chloro-3-methoxy)-1H-indazole-5-carboxamide] | > 10000 nM
O=C(Nc1ccc(Cl)c(F)c1)c1ccc2[nH]ncc2c1 [Example 10, N-(4-chloro-3-fluorophenyl)-1H-indazole-5-carboxamide] | > 10000 nM

Same assay, conditions: read-out: rat MAO-A (rat liver mitochondria) % inhibition at 10 μM; at 10 μM, rat liver mitochondria

Compound | inhibition at 10 µM
COCCn1ncc2cc(C(=O)Nc3ccc(Cl)c(Cl)c3)ccc21 [Example 21, N-(3,4-dichlorophenyl)-1-(2-methoxyethyl)-1H-indazole-5-carboxamide] | 57%
O=C(Nc1ccc(Cl)c(Cl)c1)c1ccc2[nH]ccc2c1 [Example 2, N-(3,4-dichlorophenyl)-1H-indole-5-carboxamide] | 70%
Clc1ccc(/N=C/c2ccc3[nH]ncc3c2)cc1Cl [Example 22, (E)-N-((1H-indazol-5-yl)methylene)-3,4-dichloroaniline] | 43%
Cn1ccc2cc(C(=O)Nc3ccc(Cl)c(Cl)c3)ccc21 [Example 16, N-(3,4-dichlorophenyl)-1-methyl-1H-indole-5-carboxamide] | 3%
O=C(Nc1ccc(Cl)c(Cl)c1)c1ccc2[nH]ncc2c1 [Example 1] | 42%
O=C(Nc1cc(Cl)cc(Cl)c1)c1ccc2[nH]ncc2c1 [Example 8, N-(3,5-dichlorophenyl)-1H-indazole-5-carboxamide] | 5%
O=C(Nc1ccc(F)c(Cl)c1)c1ccc2[nH]ncc2c1 [Example 9, N-(3-chloro-4-fluorophenyl)-1H-indazole-5-carboxamide] | 17%
Cn1ncc2cc(/C=N/c3ccc(Cl)c(Cl)c3)ccc21 [Example 26, (E)-3,4-dichloro-N-((1-methyl-1H-indazole-5-yl)methylene)aniline] | 23%
O=C(Nc1ccc(O)c(Cl)c1)c1ccc2[nH]ncc2c1 [Example 5, N-(3-chloro-4-hydroxyphenyl)-1H-indazole-5-carboxamide] | 60%
COc1cc(NC(=O)c2ccc3[nH]ncc3c2)ccc1Cl [Example 4, N-(4-chloro-3-methoxy)-1H-indazole-5-carboxamide] | 24%
O=C(Nc1ccc(Cl)c(F)c1)c1ccc2[nH]ncc2c1 [Example 10, N-(4-chloro-3-fluorophenyl)-1H-indazole-5-carboxamide] | 30%

Biological target: T4, human MAO-A (Homo sapiens, UniProt P21397)
T4 sequence (P21397 1-527): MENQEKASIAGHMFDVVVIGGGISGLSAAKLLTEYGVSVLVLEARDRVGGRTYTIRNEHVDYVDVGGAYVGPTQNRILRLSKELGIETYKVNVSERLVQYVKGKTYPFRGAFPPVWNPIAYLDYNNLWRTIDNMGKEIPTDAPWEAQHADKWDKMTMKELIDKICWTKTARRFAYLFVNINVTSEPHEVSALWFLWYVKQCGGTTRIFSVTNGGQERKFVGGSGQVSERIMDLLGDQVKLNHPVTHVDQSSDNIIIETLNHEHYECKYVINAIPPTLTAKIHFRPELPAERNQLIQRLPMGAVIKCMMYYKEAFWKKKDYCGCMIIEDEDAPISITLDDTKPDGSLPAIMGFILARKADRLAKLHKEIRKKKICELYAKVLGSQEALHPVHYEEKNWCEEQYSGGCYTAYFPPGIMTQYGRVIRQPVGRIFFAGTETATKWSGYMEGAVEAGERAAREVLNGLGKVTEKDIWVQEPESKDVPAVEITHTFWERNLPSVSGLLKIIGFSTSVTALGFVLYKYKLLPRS
Assay: Human MAO-A assay (recombinant enzyme, Amplex Red fluorescence)
Settings: not given

Compound | IC50
O=C(Nc1cc(Cl)cc(Cl)c1)c1ccc2[nH]ncc2c1 [Example 8, N-(3,5-dichlorophenyl)-1H-indazole-5-carboxamide] | < 10000 nM
O=C(Nc1ccc(F)c(Cl)c1)c1ccc2[nH]ncc2c1 [Example 9, N-(3-chloro-4-fluorophenyl)-1H-indazole-5-carboxamide] | > 10000 nM
O=C(Nc1ccc(O)c(Cl)c1)c1ccc2[nH]ncc2c1 [Example 5, N-(3-chloro-4-hydroxyphenyl)-1H-indazole-5-carboxamide] | > 10000 nM
O=C(Nc1ccc(Cl)c(F)c1)c1ccc2[nH]ncc2c1 [Example 10, N-(4-chloro-3-fluorophenyl)-1H-indazole-5-carboxamide] | < 10000 nM

Same assay, conditions: read-out: human MAO-A % inhibition at 10 μM

Compound | inhibition at 10 µM
COCCn1ncc2cc(C(=O)Nc3ccc(Cl)c(Cl)c3)ccc21 [Example 21, N-(3,4-dichlorophenyl)-1-(2-methoxyethyl)-1H-indazole-5-carboxamide] | 81%
O=C(Nc1ccc(Cl)c(Cl)c1)c1ccc2[nH]ccc2c1 [Example 2, N-(3,4-dichlorophenyl)-1H-indole-5-carboxamide] | 88%
Clc1ccc(/N=C/c2ccc3[nH]ncc3c2)cc1Cl [Example 22, (E)-N-((1H-indazol-5-yl)methylene)-3,4-dichloroaniline] | 62%
Cn1ccc2cc(C(=O)Nc3ccc(Cl)c(Cl)c3)ccc21 [Example 16, N-(3,4-dichlorophenyl)-1-methyl-1H-indole-5-carboxamide] | 13%
O=C(Nc1ccc(Cl)c(Cl)c1)c1ccc2[nH]ncc2c1 [Example 1] | 46%
O=C(Nc1cc(Cl)cc(Cl)c1)c1ccc2[nH]ncc2c1 [Example 8, N-(3,5-dichlorophenyl)-1H-indazole-5-carboxamide] | 65%
O=C(Nc1ccc(F)c(Cl)c1)c1ccc2[nH]ncc2c1 [Example 9, N-(3-chloro-4-fluorophenyl)-1H-indazole-5-carboxamide] | 40%
Cn1ncc2cc(/C=N/c3ccc(Cl)c(Cl)c3)ccc21 [Example 26, (E)-3,4-dichloro-N-((1-methyl-1H-indazole-5-yl)methylene)aniline] | 57%
O=C(Nc1ccc(O)c(Cl)c1)c1ccc2[nH]ncc2c1 [Example 5, N-(3-chloro-4-hydroxyphenyl)-1H-indazole-5-carboxamide] | 33%
COc1cc(NC(=O)c2ccc3[nH]ncc3c2)ccc1Cl [Example 4, N-(4-chloro-3-methoxy)-1H-indazole-5-carboxamide] | 62%
O=C(Nc1ccc(Cl)c(F)c1)c1ccc2[nH]ncc2c1 [Example 10, N-(4-chloro-3-fluorophenyl)-1H-indazole-5-carboxamide] | 55%

Same assay, conditions: read-out: human MAO-A IC50; recombinant human enzyme, p-tyramine 150 μM

Compound | IC50
COc1cc(NC(=O)c2ccc3[nH]ncc3c2)ccc1Cl [Example 4, N-(4-chloro-3-methoxy)-1H-indazole-5-carboxamide] | 8790 ± 200 nM

Reference: patent publication US9643930B2, “Substituted indazole derivatives as in vitro MAO-B inhibitors” (“NTZ LAB” LTD., priority 2013, dated 2017)
